Results from patent US20110144056A1, “PYRAZOLE DERIVATIVES USEFUL AS INHIBITORS OF FAAH” (priority 2008, published 2011).

These molecules were tested against T1, FAAH (Rattus norvegicus, UniProt P97612) (assay: FAAH whole cell assay, CHO cells expressing rat FAAH). Conditions: not given.
T1 construct: expressed in transfected cells; cDNA by RT-PCR from brain cDNA (BD Biosciences)
T1 sequence (P97612 1-579): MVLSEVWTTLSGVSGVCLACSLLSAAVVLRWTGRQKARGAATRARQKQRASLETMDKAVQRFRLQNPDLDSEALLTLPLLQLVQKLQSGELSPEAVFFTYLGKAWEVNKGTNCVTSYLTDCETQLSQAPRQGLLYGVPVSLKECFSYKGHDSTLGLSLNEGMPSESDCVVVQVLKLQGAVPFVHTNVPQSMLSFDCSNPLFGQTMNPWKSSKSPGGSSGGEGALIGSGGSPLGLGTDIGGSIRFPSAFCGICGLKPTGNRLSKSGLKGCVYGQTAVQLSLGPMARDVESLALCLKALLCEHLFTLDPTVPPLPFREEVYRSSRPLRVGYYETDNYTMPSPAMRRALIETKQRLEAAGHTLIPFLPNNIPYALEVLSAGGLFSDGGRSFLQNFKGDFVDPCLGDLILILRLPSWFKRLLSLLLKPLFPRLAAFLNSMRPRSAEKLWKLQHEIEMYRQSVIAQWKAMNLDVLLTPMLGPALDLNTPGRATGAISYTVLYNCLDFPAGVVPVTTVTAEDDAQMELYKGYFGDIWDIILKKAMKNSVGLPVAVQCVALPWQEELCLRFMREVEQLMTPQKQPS
Type: cell-based
Source text: (§1) Murine (accession number NM_010173) and Rat FAAH (accession number NM_024132) was amplified by reverse transcriptase polymerase chain reaction (RT-PCR) from brain cDNA (BD Biosciences, San Jose, Calif.) using primers 1 and 2 or primers 1 and 3 respectively (see Table). The resulting PCR product was ligated into pCR4TOPO and DNA sequence confirmed. The full length murine FAAH was subcloned into the mammalian expression vector, pcDEFneo using either EcoRI (murine) or KpnI and EcoRI (rat) restriction sites. Chinese hamster ovary cells (CHO) were transfected following manufacturers protocol (AMAXA). Forty eight hours post transfection, cells were trypsinized and transferred to 96 well plates in Iscove's DMEM media supplemented with 2 mM Glutamine, 10% fetal calf serum, 1 mg/ml geneticin and HT Supplement (0.1 mM sodium hypoxanthine, 0.016 mM thymidine) in order to isolate single clones. Following selection in geneticin, individual clones were selected and FAAH activity was assessed using a whole cell fluorescent anandamide assay, modified from Ramarao et al (2005). Following removal of tissue culture media cells were dislodged following addition of Cellstripper (Mediatech, Inc. Manassas, Va.) and transferred to 96 well black clear bottom assay plate, centrifuged at 1,000 rpm for 3 mins and media removed and replaced with assay buffer (50 mM Tris pH8.0, 1 mM EDTA, 0.1% fatty acid free BSA). The reaction was initiated by addition of fluorescent substrate, AMC Arachidonoyl Amide (Cayman Chemical, Ann Arbor, Mich.) to 1 μM and reaction allowed to proceed for 2 hours at room temperature. Release of fluorescence was monitored in a CytoFluor Multiplate Reader. Cells expressing the highest amount of FAAH activity were selected for study with FAAH inhibitors.
(§2) Assays are performed on either cell lysate or microsome fractions prepared as described or in whole cell format employing either the fluorescent substrate AAMCA (Cayman chemical, Ann Arbor, Mich.,) or ^3H-anandmaide ([ETHANOLAMINE-1-3H]American Radiolabeled Chemicals; 1 mCi/ml). The cell lysate or microsome assay is performed in Costar black wall, clear bottom plates by adding FAAH_CHO (whole cell, cell lysate or microsome) in assay buffer (50 mM Phosphate, pH 8.0, 1 mM EDTA, 200 mM KCl, 0.2% glycerol, 0.1% fatty acid free BSA) to each well, followed by either DMSO or compound and allowed to incubate at 22-25° C. for fifteen minutes. AAMCA substrate was used to achieve a final concentration of 1 μM and reaction allowed to proceed at room temperature for 1-3 hours. Fluorescent release as a measure of FAAH activity was monitored by reading the plate in a CytoFluor Multiplate Reader ([…]). Whole cell assay is conducted with cells harvested after rinsing tissue culture flasks three times with Ca^++Mg^++ free PBS, incubating for 10 mm in Enzyme free dissociation media and centrifuging for 5 minutes at 1,000 rpm in table top centrifuge. Cells are resuspended in assay buffer at desired cell number in (4×10^4 cells/assay in 96-well format; 1×10^4 cells/assay in 384-well format) and assayed as described.

| IC50 | Compound |
| --- | --- |
| 18 nM | CS(=O)(=O)c1ccc(-c2nn(-c3ccc(F)cc3)cc2Sc2ccc(Cl)cc2)cc1 [Ex 1] |
| 16 nM | CS(=O)(=O)c1ccc(-c2nn(-c3ccncc3)cc2Sc2ccc(Cl)cc2)cc1 [Ex 5] |
| 86 nM | CS(=O)(=O)c1ccc(-c2nn(C3CCCC3)cc2Sc2ccc(Cl)cc2)cc1 [Ex 23] |

These molecules were tested against T2, FAAH (Homo sapiens, UniProt O00519) (assay: FAAH whole cell assay, CHO cells expressing human FAAH). Conditions: read-out: FAAH Human Whole Cell IC50.
T2 construct: The full length FAAH was subcloned into the mammalian expression vector, pcDEF.neo; expressed in transfected cells; cDNA from Origene
T2 sequence (O00519 1-579): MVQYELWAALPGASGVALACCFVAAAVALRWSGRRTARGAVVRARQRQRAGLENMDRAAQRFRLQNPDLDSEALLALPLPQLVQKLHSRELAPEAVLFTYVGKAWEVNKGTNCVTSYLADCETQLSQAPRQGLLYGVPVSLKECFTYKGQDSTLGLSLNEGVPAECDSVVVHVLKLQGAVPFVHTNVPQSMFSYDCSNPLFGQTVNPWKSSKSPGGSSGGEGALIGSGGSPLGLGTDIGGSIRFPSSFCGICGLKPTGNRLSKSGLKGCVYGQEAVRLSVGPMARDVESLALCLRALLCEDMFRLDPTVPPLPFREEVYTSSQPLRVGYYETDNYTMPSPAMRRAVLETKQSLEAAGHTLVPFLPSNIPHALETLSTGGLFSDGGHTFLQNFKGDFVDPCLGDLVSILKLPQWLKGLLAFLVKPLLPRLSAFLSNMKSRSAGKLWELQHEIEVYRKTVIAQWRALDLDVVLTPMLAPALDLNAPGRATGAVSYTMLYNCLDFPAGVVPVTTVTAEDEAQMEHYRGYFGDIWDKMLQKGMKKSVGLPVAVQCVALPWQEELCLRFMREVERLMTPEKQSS
Type: cell-based
Source text: (§3) To assist in assay development stable cell lines for human, murine and rat full length FAAH were developed. Human FAAH cDNA (Accession No: NM_001441.1) was purchased from Origene (Rockville, Md.). The full length FAAH was subcloned into the mammalian expression vector, pcDEF.neo, using XbaI and […] restriction sites and used for stable cell line generation.
as §1, §2

| IC50 | Compound |
| --- | --- |
| 9.1 nM | CCNC(=O)c1ccc2cc(-c3c(Sc4ccc(Cl)cc4)cnn3C3CCCCO3)ccc2n1 (centres unmarked) [Example 402] |
| 63 nM | CC(C)(O)c1ccc2cc(-c3c(Sc4ccc(Cl)cc4)cnn3C3CCCCO3)ccc2n1 (centres unmarked) [Example 403] |
| 25 nM | CC(=O)N1CCc2cc(-c3c(Sc4ccc(Cl)cc4)cnn3C3CCCCO3)ccc2C1 (centres unmarked) [Example 404] |
| 35 nM | N#Cc1ccc2cc(-c3c(Sc4ccc(Cl)cc4)cnn3C3CCCCO3)ccc2n1 (centres unmarked) [Example 405] |
| 1.94 nM | CCOC(=O)c1cnc2cc(-c3c(Sc4ccc(Cl)cc4)cnn3C3CCCCO3)ccc2c1 (centres unmarked) [Example 407] |

Same assay, conditions: read-out: Human whole cell

| IC50 | Compound |
| --- | --- |
| 36 nM | CS(=O)(=O)c1ccc(-c2nn(-c3ccc(F)cc3)cc2Sc2ccc(Cl)cc2)cc1 [Ex 1] |
| 48 nM | CS(=O)(=O)c1ccc(-c2nn(-c3ccncc3)cc2Sc2ccc(Cl)cc2)cc1 [Ex 5] |
| 141 nM | CS(=O)(=O)c1ccc(-c2nn(C3CCCC3)cc2Sc2ccc(Cl)cc2)cc1 [Ex 23] |

Each molecule was assayed against T2, FAAH (assay: FAAH enzyme assay, lysate of CHO cells expressing human FAAH). Conditions: CHO cell lysate, read-out: Human Lysate.
Type: biochemical
Source text: as §3
CHO cells expressing FAAH were used to prepare either crude cell lysate or microsome fractions. To harvest cells, tissue culture media was decanted, the monolayer washed three times with Ca^++Mg^++ free PBS and cells recovered after 15 min in enzyme free dissociation media (Millipore Corp, Billerica, Mass.). Cells were collected by centrifuging at 2000 rpm for 15 min. and the cell pellet re-suspended with 50 mM HEPES (pH 7.4) containing 1 mM EDTA and the protease inhibitors aprotinin (1 mg/ml) and leupeptin (100 μM). The suspension was sonicated at 4° C. and the cell lysate recovered after centrifuging at 12,000×g (14,600 rpm, SS34 rotor) for 20 min at 4° C. to form a crude pellet of cell debris, nuclei, peroxisomes, lysosomes, and mitochondria; the supernatant or cell lysate was used for FAAH enzyme assay. In some cases, microsomes fractions enriched in FAAH were prepared by centrifuging the cell lysate further at 27,000 rpm (100,000×g) in SW28 rotor for 50 minutes at 4° C. The pellet containing FAAH-enriched microsomes was re-suspend in 50 mM HEPES, (pH 7.4) 1 mM EDTA, and any remaining DNA sheared by passage of material through a 23 gauge needle and aliquots of enzyme were store at −80° C. prior to use.
(American Radiolabeled Chemicals; 1 mCi/ml) with FAAH (Life Sciences (1995), 56, 1999-2005 and Journal of Pharmacology and Experimented Therapeutics (1997), 283, 729-734), Analytical. Biochemistry (2003), 318, 270-5. In addition, routine assays were performed monitoring hydrolysis of arachidonyl-7-amino-4-methylcoumarin amide (AAMCA) by following increase in fluorescence upon release of 7-amino 4-methyl coumarin (λEX=355 nm, (λEM=460 nm). Analytical. Biochemistry (2005). 343, 143-51.
as §2
Alternatively, assays are performed using anandamide [ethanolamine 1-^3H] (specific activity of 10 Ci/mmol) diluted with cold anandamide to achieve a final assay concentration of 1 μM anandamide (˜50,000 cpm). Enzyme (CHO cell lysate, brain or liver homogenate) is incubated in assay buffer (50 mM Phosphate, pH 8.0, 1 mM EDTA, 200 mM KCl, 0.2% glycerol, 0.1% fatty acid free BSA) with inhibitor at 25° C. for 30 minutes. The reaction was terminated by addition of 2 volumes of chloroform:methanol (1:1) and mixed by vortexing. […]

| IC50 | Compound |
| --- | --- |
| 16 nM | CS(=O)(=O)c1ccc(-c2nn(-c3ccc(F)cc3)cc2Sc2ccc(Cl)cc2)cc1 [Ex 1] |
| 28 nM | CS(=O)(=O)c1ccc(-c2nn(-c3ccncc3)cc2Sc2ccc(Cl)cc2)cc1 [Ex 5] |
| 143 nM | CS(=O)(=O)c1ccc(-c2nn(C3CCCC3)cc2Sc2ccc(Cl)cc2)cc1 [Ex 23] |

Same assay, conditions: cell lysate, read-out: FAAH Human Cell Lysate IC50

| Compound | IC50 |
| --- | --- |
| OCc1ccc2cc(-c3n[nH]cc3Sc3ccc(Cl)cc3)ccc2n1 [Example 375] | 11 nM |
| FC(F)c1ccc2cc(-c3nn(-c4ccccn4)cc3Sc3ccc(Cl)cc3)ccc2n1 [Example 379] | 4.9 nM |
| Fc1ccc(-n2cc(Sc3ccc(Cl)cc3)c(-c3ccc4nc(C(F)F)ccc4c3)n2)cc1 [Example 380] | 24 nM |
| FC(F)c1ccc2cc(-c3nn(C4CC4)cc3Sc3ccc(Cl)cc3)ccc2n1 [Example 381] | 9.5 nM |
| CCn1cc(-n2cc(Sc3ccc(Cl)cc3)c(-c3ccc4nc(C(F)F)ccc4c3)n2)cn1 [Example 382] | 4.9 nM |
| FC(F)c1ccc2cc(-c3nn(C4CC4)cc3Sc3ccc(Cl)cn3)ccc2n1 [Example 383] | 29 nM |
| Cc1ccc2cc(-c3nn(C4CC4)cc3Sc3ccc(Cl)cc3)ccc2n1 [Example 384] | 18 nM |
| Cc1ccc2cc(-c3n[nH]cc3Sc3ccc(Cl)cc3)ccc2n1 [Example 385] | 192 nM |
| Clc1ccc(Sc2cn(C3CC3)nc2-c2ccc3nc(Cl)ccc3c2)cc1 [Example 386] | 94 nM |
| CCOC(=O)c1cnc2cc(-c3n[nH]cc3Sc3ccc(Cl)cc3)cnc2c1 [Example 387] | 14 nM |
| NC(=O)c1ccc2cc(-c3nn(C4CC4)cc3Sc3ccc(Cl)cn3)ccc2n1 [Example 396] | 14.8 nM |
| N#Cc1ccc2cc(-c3nn(C4CC4)cc3Sc3ccc(Cl)cn3)ccc2n1 [Example 397] | 172 nM |
| CCOC(=O)c1ccc2cc(-c3n[nH]cc3Sc3ccc(Cl)cn3)ccc2n1 [Example 398] | 0.77 nM |
| CCOC(=O)c1ccc2cc(-c3nn(C4CC4)cc3Sc3ccc(Cl)cn3)ccc2n1 [Example 399] | 11 nM |
| CN(C)C(=O)c1ccc2cc(-c3nn(C4CC4)cc3Sc3ncc(Cl)cn3)ccc2n1 [Example 401] | 291 nM |

The next lines start with the values.

| IC50 | Compound |
| --- | --- |
| 49 nM | OC(c1ccc2cc(-c3nn(CCF)cc3Sc3ccc(Cl)cc3)ccc2n1)C(F)(F)F (centres unmarked) [Example 373] |
| 168 nM | CCC(=O)N1CCc2cc(-c3n[nH]cc3Sc3ccc(Cl)cc3)ccc2C1 [Example 376] |
| 33 nM | CC(=O)N1CCc2cc(-c3nn(C(C)C)cc3Sc3ccc(Cl)cc3)ccc2C1 [Example 377] |
| 62 nM | CCC(=O)N1CCc2cc(-c3nn(CCF)cc3Sc3ccc(Cl)cc3)ccc2C1 [Example 390] |
| 24 nM | OCc1cnc2cc(-c3nn(CCF)cc3Sc3ccc(Cl)cc3)ccc2c1 [Example 391] |
| 47 nM | CCNC(=O)c1cnc2cc(-c3nn(CCF)cc3Sc3ccc(Cl)cc3)cnc2c1 [Example 392] |
| 16 nM | CCOC(=O)c1cnc2cc(-c3nn(CCF)cc3Sc3ccc(Cl)cc3)cnc2c1 [Example 393] |
| 15 nM | CCNC(=O)c1cnc2cc(-c3nn(CCF)cc3Sc3ccc(Cl)cc3)ccc2c1 [Example 394] |
| 39 nM | CN(C)C(=O)c1ccc2cc(-c3nn(C4CC4)cc3Sc3ccc(Cl)cc3)ccc2n1 [Example 400] |
